# Source: ChEMBL document CHEMBL1130312, “Synthesis and receptor binding affinity of conformationally restricted retinoic acid analogues” (Bioorg Med Chem Lett, 1997)
# How the values were obtained:
# [1] = target: T1, Retinoic acid receptor RXR-gamma (Homo sapiens, UniProt P48443); test: Binding affinity towards Retinoic acid receptor RXR-gamma by displacing 3.4 nM 3[H]-9-cis-RA; IA = Inactive
# T1 sequence (P48443 whole entry): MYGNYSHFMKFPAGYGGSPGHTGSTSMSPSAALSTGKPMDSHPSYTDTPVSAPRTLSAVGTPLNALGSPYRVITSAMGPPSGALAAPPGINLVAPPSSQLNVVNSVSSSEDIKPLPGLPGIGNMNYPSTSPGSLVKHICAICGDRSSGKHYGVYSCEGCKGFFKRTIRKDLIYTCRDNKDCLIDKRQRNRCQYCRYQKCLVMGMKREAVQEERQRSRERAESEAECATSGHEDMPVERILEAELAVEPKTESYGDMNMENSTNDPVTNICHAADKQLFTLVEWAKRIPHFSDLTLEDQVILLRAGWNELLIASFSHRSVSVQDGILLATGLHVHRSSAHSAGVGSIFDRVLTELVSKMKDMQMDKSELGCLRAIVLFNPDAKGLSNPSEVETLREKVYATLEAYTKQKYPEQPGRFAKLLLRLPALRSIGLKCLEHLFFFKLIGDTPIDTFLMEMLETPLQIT
# [2] = target: T2, Retinoic acid receptor beta (Homo sapiens, UniProt P10826); test: Binding affinity towards cRAR-beta-2 receptor by displacing 0.82 nM 3[H]-all-trans-RA; IA = Inactive
# T2 sequence (P10826 whole entry): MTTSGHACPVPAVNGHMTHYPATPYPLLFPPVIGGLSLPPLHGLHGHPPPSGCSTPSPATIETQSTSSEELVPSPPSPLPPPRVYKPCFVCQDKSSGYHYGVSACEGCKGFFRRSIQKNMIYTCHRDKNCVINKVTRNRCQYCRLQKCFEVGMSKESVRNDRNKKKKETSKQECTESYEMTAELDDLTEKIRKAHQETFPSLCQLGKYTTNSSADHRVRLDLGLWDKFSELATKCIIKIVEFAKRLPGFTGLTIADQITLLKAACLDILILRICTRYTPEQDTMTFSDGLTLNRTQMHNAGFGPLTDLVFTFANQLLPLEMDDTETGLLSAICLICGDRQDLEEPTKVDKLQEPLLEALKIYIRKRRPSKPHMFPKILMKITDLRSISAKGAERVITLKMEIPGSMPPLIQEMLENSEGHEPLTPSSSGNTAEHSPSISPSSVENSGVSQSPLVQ
# [3] = target: T2, Retinoic acid receptor beta; test: Binding affinity towards cRAR-beta-2 receptor by displacing 1.1 nM 3[H]-9-cis-RA; IA = Inactive
# [4] = target: T1, Retinoic acid receptor RXR-gamma; test: Binding affinity towards Retinoic acid receptor RXR-gamma by displacing 3.4 nM 3[H]-9-cis-RA; No binding competition
# [5] = target: T3, Retinoic acid receptor gamma (Homo sapiens, UniProt P13631); test: Binding affinity towards human Retinoic acid receptor gamma
# T3 sequence (P13631 whole entry): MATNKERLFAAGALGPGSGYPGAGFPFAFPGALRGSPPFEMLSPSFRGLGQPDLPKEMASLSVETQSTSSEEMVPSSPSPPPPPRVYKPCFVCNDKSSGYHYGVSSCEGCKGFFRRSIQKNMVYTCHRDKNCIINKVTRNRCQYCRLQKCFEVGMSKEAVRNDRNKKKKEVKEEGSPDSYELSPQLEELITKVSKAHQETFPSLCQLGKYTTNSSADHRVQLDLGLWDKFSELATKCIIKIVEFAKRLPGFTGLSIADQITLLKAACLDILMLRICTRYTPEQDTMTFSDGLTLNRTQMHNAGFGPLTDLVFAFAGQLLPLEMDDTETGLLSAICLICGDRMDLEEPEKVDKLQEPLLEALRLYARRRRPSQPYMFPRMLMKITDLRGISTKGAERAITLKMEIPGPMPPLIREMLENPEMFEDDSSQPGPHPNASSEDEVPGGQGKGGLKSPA
# [6] = target: T4, Retinoic acid receptor alpha (Homo sapiens, UniProt P10276); test: Binding affinity towards human Retinoic acid receptor alpha
# T4 sequence (P10276 whole entry): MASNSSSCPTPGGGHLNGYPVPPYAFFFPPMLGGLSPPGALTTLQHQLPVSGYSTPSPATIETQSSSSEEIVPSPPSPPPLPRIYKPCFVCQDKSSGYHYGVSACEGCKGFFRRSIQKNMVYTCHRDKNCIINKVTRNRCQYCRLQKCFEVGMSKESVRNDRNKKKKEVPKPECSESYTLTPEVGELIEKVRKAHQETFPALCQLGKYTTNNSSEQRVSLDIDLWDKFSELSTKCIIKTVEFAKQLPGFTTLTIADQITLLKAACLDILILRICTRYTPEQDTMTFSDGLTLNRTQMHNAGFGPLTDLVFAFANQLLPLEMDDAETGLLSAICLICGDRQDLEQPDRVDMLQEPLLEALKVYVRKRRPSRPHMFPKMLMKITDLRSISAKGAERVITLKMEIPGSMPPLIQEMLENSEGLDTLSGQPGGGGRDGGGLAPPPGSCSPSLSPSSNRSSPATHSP
# [7] = target: T1, Retinoic acid receptor RXR-gamma; test: Binding affinity towards Retinoic acid receptor RXR-gamma by displacing 3.4 nM 3[H]-9-cis-RA
# [8] = target: T2, Retinoic acid receptor beta; test: Binding affinity towards cRARbeta2 receptor by displacing 0.82 nM 3[H]all-trans-RA
# [9] = target: T2, Retinoic acid receptor beta; test: Binding affinity towards cRAR-beta-2 receptor by displacing 1.1 nM 3[H]-9-cis-RA
SMILES,Ki [1],Ki [2],Ki [3],Ki [4],Ki [5] [nM],Ki [6] [nM],Ki [7] [nM],Ki [8] [nM],Ki [9] [nM]
CCOC(=O)[C@H]1C[C@@]1(C)/C=C/C=C(C)/C=C/C1=C(C)CCCC1(C)C,Not Active,Not Active,Not Active,,,,,,
CCOC(=O)[C@@H]1C[C@@]1(C)/C=C/C=C(C)/C=C/C1=C(C)CCCC1(C)C,Not Active,Not Active,Not Active,,,,,,
C/C(=C\c1ccc(C(=O)O)cc1)c1ccc2c(c1)C(C)(C)CCC2(C)C,,,,Not Active,,,,,
CC(=C/C(=O)O)/C=C/C1CC1/C=C/C1=CC(C)(C)CCC1(C)C (stereo not drawn),,,,,> 4000,> 4000,> 2800,> 1100,> 1200
CC(/C=C/C1CC1/C=C/C1=CC(C)(C)CCC1(C)C)=C\C(=O)O (stereo not drawn),,,,,32,3.1,> 7200,11,13
CC1=C(/C=C/C(C)=C/C=C/C(C)=C/C(=O)O)C(C)(C)CCC1 [TRETINOIN],,,,Not Active,,,,,
